The supplement of paper PMC11451515

Test system: P12-Ichikawa
Assay: cell viability relative to DMSO control; higher = less cytotoxic
Conditions: 48 h
Method in brief: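 Cells were incubated for 48 h at 37°C before CellTiter-Glo One luminescence was read. The cells were NOMO1 or SEM (500 cells/well) or P12-Ichikawa (1000 cells/well) leukemia cells, adapted for at least four passages in each medium and seeded in 1536-well plates (5 μl). Dosing used library compounds in DMSO applied by pin over 11 threefold points, 47 μM to 0.79 nM. Viability is the per-plate percentage of DMSO wells, with cell-free wells as background.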

[1] = HPLM + 10% dialyzed FBS, 0.000781 µM
[2] = HPLM + 10% dialyzed FBS, 0.00234 µM
[3] = HPLM + 10% dialyzed FBS, 0.00702 µM
[4] = HPLM + 10% dialyzed FBS, 0.0211 µM
[5] = HPLM + 10% dialyzed FBS, 0.0632 µM
[6] = HPLM + 10% dialyzed FBS, 0.19 µM
[7] = HPLM + 10% dialyzed FBS, 0.569 µM
[8] = HPLM + 10% dialyzed FBS, 1.71 µM
[9] = HPLM + 10% dialyzed FBS, 5.12 µM
[10] = HPLM + 10% dialyzed FBS, 15.4 µM
[11] = HPLM + 10% dialyzed FBS, 46.1 µM
[12] = RPMI 5 mM glucose + 10% FBS, 0.000781 µM
[13] = RPMI 5 mM glucose + 10% FBS, 0.00234 µM
[14] = RPMI 5 mM glucose + 10% FBS, 0.00702 µM
[15] = RPMI 5 mM glucose + 10% FBS, 0.0211 µM
[16] = RPMI 5 mM glucose + 10% FBS, 0.0632 µM
[17] = RPMI 5 mM glucose + 10% FBS, 0.19 µM
[18] = RPMI 5 mM glucose + 10% FBS, 0.569 µM
[19] = RPMI 5 mM glucose + 10% FBS, 1.71 µM
[20] = RPMI 5 mM glucose + 10% FBS, 5.12 µM
[21] = RPMI 5 mM glucose + 10% FBS, 15.4 µM
[22] = RPMI 5 mM glucose + 10% FBS, 46.1 µM
[23] = RPMI 5 mM glucose + 10% dialyzed FBS, 0.000781 µM
[24] = RPMI 5 mM glucose + 10% dialyzed FBS, 0.00234 µM
[25] = RPMI 5 mM glucose + 10% dialyzed FBS, 0.00702 µM
[26] = RPMI 5 mM glucose + 10% dialyzed FBS, 0.0211 µM
[27] = RPMI 5 mM glucose + 10% dialyzed FBS, 0.0632 µM
[28] = RPMI 5 mM glucose + 10% dialyzed FBS, 0.19 µM
[29] = RPMI 5 mM glucose + 10% dialyzed FBS, 0.569 µM
[30] = RPMI 5 mM glucose + 10% dialyzed FBS, 1.71 µM
[31] = RPMI 5 mM glucose + 10% dialyzed FBS, 5.12 µM
[32] = RPMI 5 mM glucose + 10% dialyzed FBS, 15.4 µM
[33] = RPMI 5 mM glucose + 10% dialyzed FBS, 46.1 µM

SMILES	cell viability [1] [%]	cell viability [2] [%]	cell viability [3] [%]	cell viability [4] [%]	cell viability [5] [%]	cell viability [6] [%]	cell viability [7] [%]	cell viability [8] [%]	cell viability [9] [%]	cell viability [10] [%]	cell viability [11] [%]	cell viability [12] [%]	cell viability [13] [%]	cell viability [14] [%]	cell viability [15] [%]	cell viability [16] [%]	cell viability [17] [%]	cell viability [18] [%]	cell viability [19] [%]	cell viability [20] [%]	cell viability [21] [%]	cell viability [22] [%]	cell viability [23] [%]	cell viability [24] [%]	cell viability [25] [%]	cell viability [26] [%]	cell viability [27] [%]	cell viability [28] [%]	cell viability [29] [%]	cell viability [30] [%]	cell viability [31] [%]	cell viability [32] [%]	cell viability [33] [%]
NC(=O)C1CCCc2c1[nH]c1ccc(Cl)cc21 (configuration not stated)	112	112	113	114	115	110	105	102	83.4	46.2	38.2	107	111	111	104	108	112	109	109	103	59.8	32.3	114	101	112	107	112	106	111	94.4	93.8	48.2	18.3
Cc1cnc(C(=O)O)c[n+]1[O-]	115	120	112	115	112	116	114	119	111	107	105	122	128	124	126	120	127	125	127	116	119	100	121	130	123	111	117	123	120	108	115	109	102
C=CCc1cccc(/C=N/NC(=O)CN2CCN(Cc3ccccc3)CC2)c1O	120	115	119	118	116	117	117	106	97	64.2	7.9	110	102	113	–	110	113	108	108	94.5	52.9	17.1	109	99.7	109	114	109	101	112	102	87.5	44.8	13.5
Nc1cccc2c1CN([C@H]1CCC(=O)NC1=O)C2=O	115	112	114	117	109	114	107	103	107	88.8	96.7	109	124	118	118	124	113	116	99.6	114	80.8	92.7	112	114	105	107	107	107	97.4	102	94.8	63.3	80.8
CCN(CC)CCCCNc1ncc2c(n1)N(C)C(=O)N(c1c(Cl)c(OC)cc(OC)c1Cl)C2	118	121	120	118	117	115	113	121	114	105	11.8	–	–	–	–	–	–	–	–	–	–	–	120	110	122	119	120	117	106	103	121	90.9	22.8
CCC\C1=C\C(=O)NC(=S)N1	99.4	107	109	111	120	120	94.2	110	87.6	38.4	8.65	107	112	110	118	119	112	85	104	78.9	40.8	7.58	102	105	103	115	118	119	99.7	113	83.9	68.3	9.42
CO/C1=C/C(C)=C\[C@@H](C)[C@@H](O)[C@@H](C)C/C(C)=C\C=C/[C@H](OC)[C@@H]([C@@H](C)[C@@H](O)[C@H](C)[C@@]2(O)C[C@@H](O)[C@H](C)[C@@H](C(C)C)O2)OC1=O	88.2	99.5	91.5	96.3	81.7	39.5	34.8	34.8	37.5	36.8	33	89	96.6	99.1	88.6	70.1	37.8	29.4	27.9	26.4	25.4	22.1	82.4	88.3	88.3	75.2	60.7	29.9	19.9	21.3	19.4	20	18
Nc1ncnc2ccccc12	87.8	92.3	95.5	9.38	106	100	106	105	105	100	111	84.2	90.7	88.3	13.7	104	102	105	97.2	97.8	104	104	86.2	91.8	93.5	28.2	102	102	100	92.3	103	99.1	94
